Experimental findings from US20180318311A1, “TRICYCLIC 2-QUINOLINONES AS ANTIBACTERIALS” (priority 2017, published 2018) are described below.

Values after ≈ are worked out from the molar mass of the structure shown. Where two headings read alike, the source gives them in different places.

What all share (format): cell-based
Assay [1] deals with S. aureus ATCC 49951 (NB01006). Kind of assay: MIC by broth microdilution, S. aureus NB01006. To be noted: Staphylococcus aureus, ATCC49951, CAMHB, 35° C., 20 hours, read-out: Antibacterial activity (MIC) NB01006. In a few lines:
(§1)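 CLSI broth microdilution in cation-adjusted Mueller-Hinton broth, inoculum about 5×10^5 CFU/mL from overnight MHA cultures. Two-fold compound dilutions in 1% final DMSO; plates incubated 20 h at 35° C in ambient air. MIC (μg/mL) was the lowest concentration preventing visible growth, checked by OD600 and visual inspection.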
In general terms: Broth dilution looks for growth in wells or tubes with falling amounts of substance.

The subject of assay [2] is S. aureus NB01006-AVR005, gyrA (S84L), grlA (580F) and grlB (E471K). Kind of assay: microbe, parasite or virus in culture. The note with it: Staphylococcus aureus, 20 h, read-out: Antibacterial activity (MIC) NB01006-AVR005. In a few lines:
as §1

Assay [3] has as its system S. aureus NB01080 fluoroquinolone-resistant clinical isolate. The assay can be described thus: MIC by broth microdilution, S. aureus NB01080. The note with it: Staphylococcus aureus, CAMHB, 35° C., 20 hours, read-out: Antibacterial activity (MIC) NB01080. In a few lines:
as §1

In assay [4] the test system is E. faecalis ATCC 29212 (NB04001). The assay can be described thus: MIC by broth microdilution, E. faecalis NB04001. The note with it: Enterococcus faecalis, ATCC29212, CAMHB, 35° C., 20 hours, read-out: Antibacterial activity (MIC) NB04001. Put shortly:
as §1

The subject of assay [5] is S. pneumoniae ATCC 25922 (NB07001). Kind of assay: MIC by broth microdilution, S. pneumoniae NB07001. To be noted: Streptococcus pneumoniae, read-out: Antibacterial activity (MIC) NB07001. Put shortly:
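CAMHB, ~5×10^5 CFU/mL, 2-fold serial dilutions (final DMSO 1%), 35° C, ambient air, 20 h. Read OD600 plus visual check; MIC = lowest conc. with no visible growth, μg/mL.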

Assay [6] has as its system E. coli ATCC 25922 (NB27001). The assay can be described thus: MIC by broth microdilution, E. coli NB27001. To be noted: Escherichia coli, ATCC25922, CAMHB, 35° C., 20 hours, read-out: Antibacterial activity (MIC) NB27001. In a few lines:
as §1

Assay [7] has as its system P. aeruginosa NB52019, wild-type PAO1 strain. Kind of assay: MIC by broth microdilution, P. aeruginosa NB52019. The note with it: Pseudomonas aeruginosa, CAMHB, 35° C., 20 hours, read-out: Antibacterial activity (MIC) NB52019. In a few lines:
as §1

[8] abbreviates: ATCC25922, S. pneumoniae, CAMHB supplemented with 5% lysed horse blood, 35° C., 20 hours.

For `C[C@H]1COc2c(N3CCCN(CC(F)F)CC3)c(F)cc3cc(C(=O)O)c(=O)n1c23` [Example 1.54, (S)-10-(4-(2,2-difluoroethyl)-1,4-diazepan-1-yl)-9-fluoro-3-methyl-5-oxo-2,3-dihydro-5H-[1,4]oxazino[2,3,4-ij]quinoline-6-carboxylic acid], the MIC in assay [1] was 1 to 32 µg/mL (≈ 2.35 to 75.2 µM); in assay [2], > 32 µg/mL; in assay [3] it was > 32 µg/mL; in assay [4], > 32 µg/mL; in assay [5] (ATCC25922, 20 h), > 32 µg/mL; in assay [6], > 32 µg/mL. Besides, in assay [7], the MIC is > 32 µg/mL.

With `C[C@H]1COc2c(N3CCNC4(CC3)CC4)c(F)cc3cc(C(=O)O)c(=O)n1c23` [Example 1.55, (S)-9-fluoro-3-methyl-5-oxo-10-(4,7-diazaspiro[2.6]nonan-7-yl)-2,3-dihydro-5H-[1,4]oxazino[2,3,4-ij]quinoline-6-carboxylic acid], the MIC in assay [1] was 1 to 32 µg/mL (≈ 2.58 to 82.6 µM); in assay [2], > 32 µg/mL; in assay [3], 1 to 32 µg/mL (≈ 2.58 to 82.6 µM); in assay [4], 1 to 32 µg/mL (≈ 2.58 to 82.6 µM); in assay [5] (ATCC25922, 20 h), 1 to 32 µg/mL (≈ 2.58 to 82.6 µM); in assay [6], 1 to 32 µg/mL (≈ 2.58 to 82.6 µM). The MIC in assay [7] was > 32 µg/mL.

As for `C[C@H]1COc2c(N3CC[C@@H]([C@@H](N)CF)C3)c(F)cc3cc(C(=O)O)c(=O)n1c23` [Example 1.56, (S)-10-((R)-3-((R)-1-amino-2-fluoroethyl)pyrrolidin-1-yl)-9-fluoro-3-methyl-5-oxo-2,3-dihydro-5H-[1,4]oxazino[2,3,4-ij]quinoline-6-carboxylic acid], the MIC in assay [1] was < 1 µg/mL; in assay [2], 1 to 32 µg/mL (≈ 2.54 to 81.3 µM); in assay [3], < 1 µg/mL; in assay [4], < 1 µg/mL; in assay [5] (ATCC25922, 20 h) it was < 1 µg/mL; in assay [6], < 1 µg/mL. For the same molecule, the MIC in assay [7] lay within 1 to 32 µg/mL (≈ 2.54 to 81.3 µM).

For `C[C@H]1COc2c(N3CCC4(CCCN4C)CC3)c(F)cc3cc(C(=O)O)c(=O)n1c23` [Example 1.57, (S)-9-fluoro-3-methyl-10-(1-methyl-1,8-diazaspiro[4.5]decan-8-yl)-5-oxo-2,3-dihydro-5H-[1,4]oxazino[2,3,4-ij]quinoline-6-carboxylic acid], the MIC in assay [1] was > 32 µg/mL; in assay [2] it was > 32 µg/mL; in assay [3], > 32 µg/mL; in assay [4] it was > 32 µg/mL; in assay [5] (ATCC25922, 20 h), > 32 µg/mL; in assay [6] it was 1 to 32 µg/mL (≈ 2.41 to 77 µM). Also, the MIC in assay [7] is > 32 µg/mL.

As for `C[C@@H]1CN(c2c(F)cc3cc(C(=O)O)c(=O)n4c3c2OC[C@@H]4C)C[C@@]1(C)CN` [Example 1.58, (S)-10-((3R,4S)-3-(aminomethyl)-3,4-dimethylpyrrolidin-1-yl)-9-fluoro-3-methyl-5-oxo-2,3-dihydro-5H-[1,4]oxazino[2,3,4-ij]quinoline-6-carboxylic acid], the MIC in assay [1] was < 1 µg/mL; in assay [2], 1 to 32 µg/mL (≈ 2.57 to 82.2 µM); in assay [3] it was 1 to 32 µg/mL (≈ 2.57 to 82.2 µM); in assay [4], 1 to 32 µg/mL (≈ 2.57 to 82.2 µM); in assay [5] (ATCC25922, 20 h) it was 1 to 32 µg/mL (≈ 2.57 to 82.2 µM); in assay [6] it was 1 to 32 µg/mL (≈ 2.57 to 82.2 µM). In addition, in assay [7], the MIC is > 32 µg/mL.

Consider `C[C@H]1COc2c(N3CC4=C(CNC4)C3)c(F)cc3cc(C(=O)O)c(=O)n1c23` [Example 1.59, (S)-9-fluoro-3-methyl-5-oxo-10-(3,4,5,6-tetrahydropyrrolo[3,4-c]pyrrol-2(1H)-yl)-2,3-dihydro-5H-[1,4]oxazino[2,3,4-ij]quinoline-6-carboxylic acid], for which the MIC in assay [1] was 1 to 32 µg/mL (≈ 2.69 to 86.2 µM); in assay [2], > 32 µg/mL; in assay [3] it was 1 to 32 µg/mL (≈ 2.69 to 86.2 µM); in assay [4], > 32 µg/mL; in assay [5] (ATCC25922, 20 h), 1 to 32 µg/mL (≈ 2.69 to 86.2 µM); in assay [6], 1 to 32 µg/mL (≈ 2.69 to 86.2 µM). Also, the MIC in assay [7] is > 32 µg/mL.

For `C[C@H]1COc2c(N3CCN4CCC3C4)c(F)cc3cc(C(=O)O)c(=O)n1c23` (stereo partly drawn) [Example 1.60, (3S)-10-(1,4-diazabicyclo[3.2.1]octan-4-yl)-9-fluoro-3-methyl-5-oxo-2,3-dihydro-5H-[1,4]oxazino[2,3,4-ij]quinoline-6-carboxylic acid], the MIC in assay [1] is 1 to 32 µg/mL (≈ 2.68 to 85.7 µM); in assay [2], > 32 µg/mL; in assay [3], > 32 µg/mL; in assay [4], 1 to 32 µg/mL (≈ 2.68 to 85.7 µM); in assay [5] (ATCC25922, 20 h), 1 to 32 µg/mL (≈ 2.68 to 85.7 µM); in assay [6] it was 1 to 32 µg/mL (≈ 2.68 to 85.7 µM). The MIC in assay [7] was in the range of 1 to 32 µg/mL (≈ 2.68 to 85.7 µM).

For the molecule `C[C@H]1COc2c(N3C4CCC3CC4)c(F)cc3cc(C(=O)O)c(=O)n1c23` [Example 1.61, (S)-10-(7-azabicyclo[2.2.1]heptan-7-yl)-9-fluoro-3-methyl-5-oxo-2,3-dihydro-5H-[1,4]oxazino[2,3,4-ij]quinoline-6-carboxylic acid], the MIC in assay [1], in assay [2], in assay [3], in assay [4], in assay [5] (setting [8]) and in assay [6] was > 32 µg/mL in each case. Besides, the MIC in assay [7] was > 32 µg/mL.

As for `C[C@H]1COc2c(N3CCN4C5CCC(C5)C4C3)c(F)cc3cc(C(=O)O)c(=O)n1c23` (stereo partly drawn) [Example 1.63, (3S)-9-fluoro-3-methyl-10-(octahydro-2H-6,9-methanopyrido[1,2-a]pyrazin-2-yl)-5-oxo-2,3-dihydro-5H-[1,4]oxazino[2,3,4-ij]quinoline-6-carboxylic acid], the MIC in assay [1] was > 32 µg/mL; in assay [2], > 32 µg/mL; in assay [3], > 32 µg/mL; in assay [4] it was > 32 µg/mL; in assay [5] (setting [8]), > 32 µg/mL; in assay [6], 1 to 32 µg/mL (≈ 2.42 to 77.4 µM). For the same molecule, the MIC in assay [7] is > 32 µg/mL.

Take `C[C@H]1COc2c(N3CC4CCCC(C3)N4)c(F)cc3cc(C(=O)O)c(=O)n1c23` [Example 1.66, (3S)-10-(3,9-diazabicyclo[3.3.1]nonan-3-yl)-9-fluoro-3-methyl-5-oxo-2,3-dihydro-5H-[1,4]oxazino[2,3,4-ij]quinoline-6-carboxylic acid]: the MIC in assay [1] is 1 to 32 µg/mL (≈ 2.58 to 82.6 µM); in assay [2] it was > 32 µg/mL; in assay [3], > 32 µg/mL; in assay [4] it was > 32 µg/mL; in assay [5] (setting [8]), 1 to 32 µg/mL (≈ 2.58 to 82.6 µM); in assay [6], 1 to 32 µg/mL (≈ 2.58 to 82.6 µM). Besides, in assay [7], the MIC is > 32 µg/mL.

In the case of `C[C@H]1COc2c(N3CCC(N)(CO)CC3)c(F)cc3cc(C(=O)O)c(=O)n1c23` [Example 1.67, (S)-10-(4-amino-4-(hydroxymethyl)piperidin-1-yl)-9-fluoro-3-methyl-5-oxo-2,3-dihydro-5H-[1,4]oxazino[2,3,4-ij]quinoline-6-carboxylic acid], the MIC in assay [1] was > 32 µg/mL; in assay [2], > 32 µg/mL; in assay [3] it was > 32 µg/mL; in assay [4] it was > 32 µg/mL; in assay [5] (ATCC25922, 20 h) it was > 32 µg/mL; in assay [6] it was > 32 µg/mL. Also, the MIC in assay [7] is > 32 µg/mL.

As to `C[C@H]1COc2c(N3CCC(O)(CN)CC3)c(F)cc3cc(C(=O)O)c(=O)n1c23` [Example 1.68, (S)-10-(4-(aminomethyl)-4-hydroxypiperidin-1-yl)-9-fluoro-3-methyl-5-oxo-2,3-dihydro-5H-[1,4]oxazino[2,3,4-ij]quinoline-6-carboxylic acid], the MIC was > 32 µg/mL in assay [1]; > 32 µg/mL in assay [2]; > 32 µg/mL in assay [3]; > 32 µg/mL in assay [4]; > 32 µg/mL in assay [5] (ATCC25922, 20 h); > 32 µg/mL in assay [6]. For the same molecule, the MIC in assay [7] was > 32 µg/mL.
